Experimental data published in patent publication US6730787B1, “2,4Dioxo-5-arylidenimino-1,3-pyrimidines” (priority 2001, dated 2004).
≈ marks a conversion by molar mass, not a printed value. Read-outs that look alike come from different tables or passages of the source.

How the values were obtained:
[1] = system: Herpes Simplex virus of the type I (HSV-I/Leningrad/248/88); test: Effect on Herpes Simplex virus: cytopathogenic effect in Vero cells; assay type: cell-based; conditions: for Quantity of the unchanged cells: number of cells in 100 visual fields
mice [2] = test: Analgesic activity (tail withdrawal from radiant heat); assay type: in vivo
Procedure: The time needed to draw back a tail placed under a directed source of radiant heat was estimated in a group of 3 mice. Prolongation of the response time by more than 50% after intraperitoneal dosing the substance (30 mg/kg) indicated analgesic activity. Analginum (2 mg/kg) was utilized as a reference agent.

[3] = system: Mycobaciterium tuberculosis H37RV; test: Antimicrobial effect, serial dilution method (MIC); assay type: cell-based, Mycobacterium tuberculosis; conditions: 72-hour cultivation at 37° C.
mice [4] = test: Psychodepressant activity (behavioral depression score); assay type: in vivo; conditions: one hour after per oral 300 mg/kg; total 60 points, less than 40 = significant behavioral depression; 3 mice
Procedure: Each parameter scores 2 points for an each mouse that had unchanged behavior. The total point sum was 60 (2×10×3 mice). Reducing score to less than 40 one hour after dosing with a substance per oral (300 mg/kg) denoted significant behavioral depression. Haloperidol was utilized as a reference agent.

[5] = system: primary culture of human lymphocytes; test: Interferon-inducing activity in primary culture of human lymphocytes (IFN-α immunoenzyme test); assay type: cell-based
Procedure: To obtain lymphocyte culture, fresh blood (within 12 hours after sampling) from healthy donors (not of group II) was used. To separate lymphocytes, heparinized blood obtained from healthy donor was centrifuged in a density gradient ficoll-verografin of […] in order to extract a fraction of immunocompetent cells. This fraction was selected and diluted with the nutrient medium RPMI-1640, containing 5% of fetal calf serum, 0.3 mg/ml of L-glutamin, 100 un/ml of penicillin, and 50 μg/ml of streptomycin. The concentration of lymphocytes was considered after dying them with methylene blue and calculation of cell number in a chamber of a hemocytometer. Initial solutions of the claimed compounds were diluted with the nutrient medium RPMI-1640 so that the final concentrations of the compounds which were obtained after introduction of lymphocyte suspension, constituted the raw: 100 μg/ml, 10 μg/ml, 1 μg/ml. The final concentration of lymphocytes in the induction mixture was 3×10^6 cell/ml.
Control and test samples were incubated for 24 hours at the temperature of 37° C. After incubation, the samples were centrifuged at 2,000 G to deposit cell elements, and IFN-containing supernatant was separate out of the samples; then the supernatant was analyzed for the quantitative content of IFN. Cell deposition was resuspended in the preceding volume of nutrient medium, colored with vital dye trypan blue, and cell number was counted in a chamber of a hemocytometer (as described above) to determine cytotoxic effect of the compounds.
Quantitative determination of the content of IFN in control and test samples was conducted using the immunoenzyme test system Pro Con IF2 Plus, that is intended for determination of IFN-α, which is produced by TOO <<Protein contour>>. The solid-phase immunoenzyme method, utilizing horse radish peroxidase as an indicator enzyme, was used to determine the quantity of interferon in the samples. Activity of the bonded peroxidase was measured using an automatic photometer for microplates with a microprocessor at the wavelength of 450 nm.
Based on the obtained results, a calibrating curve was formed, which allows to obtain data expressed in international units (IU) of activity, using the microprocessor of the automatic photometer. The results of the analysis are expressed in IU of activity of IFN per ml in the given induction system, which contains 3×10^6 lymphocyte/ml. Each test and control point was investigated in four parallels.
The obtained data were undergone a statistical analysis using t-criterion, and calculation of the confident interval of probability at p=0.05 was carried out. Coincidence between the results obtained in the parallel tests was analyzed.

no-breed white mice = assay type: in vivo; conditions: observed 72 hours, 300 was the maximally utilized concentration
Procedure: Tested substance was introduced orally (in dose of 300 mg/kg) through a gastric tube or intraperitoneally (in dose of 100 mg/kg) to no-breed white mice with mass 18-20 g (each tested group consisted of 3 males and 3 females). Then the mouse state was observed during 72 hours. Absence of symptoms characteristic of toxic effects, or absence of animal death during the given time allows to make a conclusion that the toxicity of the tested substance is low. If acute toxicity effects are observed, the dose is reduced to find maximal tolerable dose.

C.trachomatis D323 = test: Effect on Chlamydia trachomatis in cell culture; assay type: cell-based; conditions: for percentage of cell protection from infection / Number of unchanged cells: 100 mg/l, 48 hours; for Number of unchanged cells: counted in 100 visual fields; for activity against chlamydia (in words): compared with Ciprofloxacin / compounds of Table 5
Procedure: The […] activity of the claimed compounds was studied in respect to C.trachomatis […], which is a standard strain contained in the collection of the department of microbiology of St. Petersburg State Pavlov Medical University. […] Cells were grown in flasks made of neutral glass in the medium RPMI-1640 containing 10% of fetal calf serum. The test was performed in flat-bottom flasks made of glass (non-toxic), that were supplied with cover glasses. The cells were introduced into the medium in the final concentration of 1×10^6 cell/ml. […] Simultaneously, tested compounds in a final concentration of 100 mg/l were added to the cells. The sample was centrifuged at 2400 G for 60 minutes at a room temperature and incubated at 37° C. for 2 hours. […] The samples were doubled using the medium without cycloheximide so as to exclude its effect on the investigated compounds. The samples were incubated for 48 hours in CO2-incubator. […] The effect of the compound was determined by analysis of the monolayer state and number of cells with CPI when compared with the control (cell culture infected with C.trachomatis […]); in doing so, the number of unchanged cells, that were counted in 100 visual fields obtained using the eyepiece-micrometer, was taken into consideration.

rats = test: Hepatoprotective activity (CCl4 liver damage, AlAT); assay type: in vivo
Procedure: CCl4 dissolved in 50% olive oil (1 ml/kg) was subcutaneously administrated to rats. Test substances were administrated perorally in a dose of 20 mg/kg 30 minutes before and 7 hours after the CCL4 administration. The activity of alanine-aminotranspherase (AlAT), which is a marker enzyme of liver parenchyma damage, was assessed twenty-four hours later. Reducing of enzyme amount by more than 30% relative to the control group was considered as evidence of hepatoprotective properties of the substance. Vitamin E in a dose of 100 mg/kg was used as a reference agent.

[6] = Mycobacterium tuberculosis, H37RV, read-out: MIC
[7] = compound 100 μg/ml, 36 hours of incubation

With Nc1nc2c(ncn2COCCO)c(=O)[nH]1 [Acyclovir, reference compound] the “% of protection” value ([1]; Acyclovir 30 μg/ml) was 80% and the “Quantity of the unchanged cells” value ([1]; Acyclovir 30 μg/ml) was 8000.

For Cc1c(N(C)CS(=O)(=O)[O-])c(=O)n(-c2ccccc2)n1C.[Na+] [Analginum, reference compound], the “Prolongation of the latent period of response (%)” value (mice [2]; Analginum 2 mg/kg, reference agent) was 86%.

In the case of CC[C@@H](CO)NCCN[C@@H](CC)CO [Ethambutol], the MIC [3, 6] is reported as 5 µg/mL (≈ 24.5 µM).

In the case of O=C(CCCN1CCC(O)(c2ccc(Cl)cc2)CC1)c1ccc(F)cc1 [Haloperidol, reference compound], the Point number (mice [4]) is reported as 27.

O=c1[nH]cc(N=Cc2ccccc2Cl)c(=O)[nH]1 [IV, 2,4-dioxo-5-(2-chlorobenzylidene) imino-1,3-pyrimidine] was tested, and the “Content of IFN in induction mixture after 24-hour incubation” value (“Content of IFN in induction mixture” for short) ([5]; substance 1 mg/l) was 15,2 ± 0,3 IU/3 × 10^4 lymph./ml, the “Content of IFN in induction mixture” value ([5]; substance 10 mg/l) was 62,5 ± 1,3 IU/3 × 10^4 lymph./ml and the “Content of IFN in induction mixture” value ([5]; substance 100 mg/l) was 123,6 ± 0,5 IU/3 × 10^4 lymph./ml. The “Maximal tolerable dose: Concentration of tested compounds (mg/l) at oral introducing” value (“Maximal tolerable dose: Concentration” below) (no-breed white mice) was 300 mg/L.

NNC(=O)c1ccncc1 [Isoniazid] showed an MIC [3, 6] of 0.1 µg/mL (≈ 0.729 µM).

Molecule CC1COc2c(N3CCN(C)CC3)c(F)cc3c(=O)c(C(=O)O)cn1c23 (stereo not drawn) [Ofloxacin] has an MIC [3, 6] of 0.5 µg/mL (≈ 1.38 µM).

[H]/N=C(/N)N[C@H]1[C@H](O)[C@@H](O)[C@H](O[C@@H]2O[C@@H](C)[C@](O)(C=O)[C@H]2O[C@@H]2O[C@@H](CO)[C@H](O)[C@@H](O)[C@@H]2NC)[C@@H](N/C(N)=N\[H])[C@@H]1O [Streptomycin] was tested, and the MIC [3, 6] was 0.2 µg/mL (≈ 0.344 µM).

In the case of O=c1[nH]cc(N=Cc2cc(Br)ccc2O)c(=O)[nH]1 [VIII, 2,4-dioxo-5-(2-hydroxy-5-bromobenzylidene) imino-1,3-pyrimidine], the MIC [3] is reported as 100 µg/mL (≈ 322 µM) and the “Maximal tolerable dose: Concentration” value (no-breed white mice) is reported as 300 mg/L.

For O=c1[nH]cc(N=Cc2ccc(Cl)cc2Cl)c(=O)[nH]1 [XI, 2,4-dioxo-5-(2,4-dichlorobenzylidene) imino-1,3-pyrimidine], the “percentage of cell protection from infection” value (C.trachomatis D323) was 55%, the “Number of unchanged cells” value (C.trachomatis D323) was 7.700 and the “activity against chlamydia (in words)” value (C.trachomatis D323) was “marked activity against chlamydia”. For the same molecule, the “Maximal tolerable dose: Concentration” value (no-breed white mice) was 300 mg/L.

O=c1[nH]cc(N=Cc2cc(Cl)cc(Cl)c2O)c(=O)[nH]1 [XII, 2,4-dioxo-5-(2-hydroxy-3,5-dichlorobenzylidene) imino-1,3-pyrimidine] was tested, and the Point number (mice [4]) was 35, the “% of reducing AIAT” value (rats; perorally 20 mg/kg 30 minutes before and 7 hours after CCl4, assessed 24 hours later, relative to control group) was −48% and the “Prolongation of the latent period of response (%)” value (mice [2]; intraperitoneal 30 mg/kg, more than 50% = analgesic activity) was 96%. The MIC [3] was 100 µg/mL (≈ 333 µM), the “Maximal tolerable dose: Concentration” value (no-breed white mice) was 300 mg/L and the “% of protection” value [1, 7] was 90%. For the same molecule, the “Quantity of the unchanged cells” value [1, 7] was 9000.

For O=c1[nH]cc(N=Cc2cc(Br)cc(Br)c2O)c(=O)[nH]1 [XIII, 2,4-dioxo-5-(2-hydroxy-3,5-dibromobenzylidene) imino-1,3-pyrimidine], the “Maximal tolerable dose: Concentration” value (no-breed white mice) was 300 mg/L, the “% of protection” value [1, 7] was 80% and the “Quantity of the unchanged cells” value [1, 7] was 8000.

In the case of O=c1[nH]cc(N=Cc2cc([N+](=O)[O-])ccc2O)c(=O)[nH]1 [XIX, 2,4-dioxo-5-(2-hydroxy-5-nitrobenzylidene) imino-1,3-pyrimidine], the “Maximal tolerable dose: Concentration” value (no-breed white mice) is reported as 300 mg/L, the “% of protection” value [1, 7] is reported as 80% and the “Quantity of the unchanged cells” value [1, 7] is reported as 8000.

In the case of COc1cc(C=Nc2c[nH]c(=O)[nH]c2=O)ccc1O [XV, 2,4-dioxo-5-(4-hydroxy-3-methoxybenzylidene) imino-1,3-pyrimidine], the “Content of IFN in induction mixture” value ([5]; substance 1 mg/l) is reported as 4,5 ± 1,6 IU/3 × 10^4 lymph./ml, the “Content of IFN in induction mixture” value ([5]; substance 10 mg/l) is reported as 54,2 ± 1,8 IU/3 × 10^4 lymph./ml and the “Content of IFN in induction mixture” value ([5]; substance 100 mg/l) is reported as 105 ± 2 IU/3 × 10^4 lymph./ml. The “Maximal tolerable dose: Concentration” value (no-breed white mice) was 300 mg/L.

O=c1[nH]cc(N=Cc2ccccc2[N+](=O)[O-])c(=O)[nH]1 [XVIII, 2,4-dioxo-5-(2-nitrobenzylidene) imino-1,3-pyrimidine] was tested, and the MIC [3] was 100 µg/mL (≈ 384 µM) and the “Maximal tolerable dose: Concentration” value (no-breed white mice) was 300 mg/L.

In the case of O=c1[nH]cc(N=Cc2cc(I)cc(I)c2O)c(=O)[nH]1 [XXIV, 2,4-dioxo-5-(2-hydroxy-3,5-diiodobenzylidene) imino-1,3-pyrimidine], the MIC [3] is reported as 100 µg/mL (≈ 207 µM) and the “Maximal tolerable dose: Concentration” value (no-breed white mice) is reported as 300 mg/L.

In the case of CN(C)c1ccc(C=Nc2c[nH]c(=O)[nH]c2=O)cc1 [XXV, 2,4-dioxo-5-(4-dimethylamino-benzylidene) imino-1,3-pyrimidine], the “percentage of cell protection from infection” value (C.trachomatis D323) is reported as 55%, the “Number of unchanged cells” value (C.trachomatis D323) is reported as 7.700 and the “activity against chlamydia (in words)” value (C.trachomatis D323) is reported as “marked activity against chlamydia”. For the same molecule, the “Maximal tolerable dose: Concentration” value (no-breed white mice) was 300 mg/L.

For Rifampycin, the MIC [3] was 0.05 µg/mL.

With Vitamin E [reference compound] the “% of reducing AIAT” value (rats; Vitamin E 100 mg/kg, reference agent) was −30%.
